Measurements reported in ChEMBL document CHEMBL5584236, “Development of novel bisphenol derivatives with a membrane-targeting mechanism as potent gram-positive antibacterial agents” (Eur J Med Chem, 2024).

Columns and labels:
[1] = Hemolytic activity against rabbit RBC incubated for 1 hr by multimode plate reader; type: toxicity, cell-based, Oryctolagus cuniculus, Erythrocyte; details: rabbit red blood cells (erythrocytes)
Staphylococcus aureus [2] = assay: Antibacterial activity against methicillin-resistant Staphylococcus aureus N315 assessed as reduction in microbial growth incubated for 22 to 24 hrs by CLSI based broth microdilution method; type: functional; details: time 22-24 hrs
Staphylococcus aureus [3] = assay: Antibacterial activity against methicillin-resistant Staphylococcus aureus NCTC10442 assessed as reduction in microbial growth incubated for 22 to 24 hrs by CLSI based broth microdilution method; type: functional; details: time 22-24 hrs
Staphylococcus aureus [4] = assay: Antibacterial activity against Staphylococcus aureus ATCC29213 assessed as reduction in microbial growth incubated for 22 to 24 hrs by CLSI based broth microdilution method; type: functional; details: time 22-24 hrs
Escherichia coli = assay: Antibacterial activity against Escherichia coli ATCC25922 assessed as reduction in microbial growth incubated for 22 to 24 hrs by CLSI based broth microdilution method; type: functional; details: time 22-24 hrs
Acinetobacter baumannii [5] = assay: Antibacterial activity against Acinetobacter baumannii ATCC17978 assessed as reduction in microbial growth incubated for 22 to 24 hrs by CLSI based broth microdilution method; type: functional; details: time 22-24 hrs
Klebsiella pneumoniae = assay: Antibacterial activity against Klebsiella pneumoniae ATCC10031 assessed as reduction in microbial growth incubated for 22 to 24 hrs by CLSI based broth microdilution method; type: functional; details: time 22-24 hrs
Acinetobacter baumannii [6] = assay: Antibacterial activity against Acinetobacter baumannii R28889 assessed as reduction in microbial growth incubated for 22 to 24 hrs by CLSI based broth microdilution method; type: functional; details: time 22-24 hrs

Row | SMILES | HC50 at 1 h [1] [µg/mL] | MIC (Staphylococcus aureus [2]) [µg/mL] | MIC (Staphylococcus aureus [3]) [µg/mL] | MIC (Staphylococcus aureus [4]) [µg/mL] | MIC (Escherichia coli) [µg/mL] | MIC (Acinetobacter baumannii [5]) [µg/mL] | MIC (Klebsiella pneumoniae) [µg/mL] | MIC (Acinetobacter baumannii [6]) [µg/mL]
1 | C=CCOc1ccc(S(=O)(=O)c2ccc(OCC(=O)N[C@@H](CCCNC(=N)N)C(=O)OC)cc2)cc1 | > 200 | > 50 | > 50 | > 50 | > 50 |  |  | 
2 | CC(C)Oc1ccc(S(=O)(=O)c2ccc(OCCCCNC(=N)N)cc2)cc1 | > 200 | 6.25 | 6.25 | 12.5 | 50 |  |  | 
3 | C=CCOc1ccc(S(=O)(=O)c2ccc(OCC(=O)OCC)cc2)cc1 | > 200 | > 50 | > 50 | > 50 | > 50 |  |  | 
4 | COC(=O)[C@H](CCCNC(=N)N)NC(=O)[C@H](CCCNC(=N)N)NC(=O)[C@H](CCCNC(=N)N)NC(=O)COc1ccc(S(=O)(=O)c2ccc(OC/C=C(/C)CCC=C(C)C)cc2)cc1 | 165 | 0.78 | 0.78 | 0.78 | 6.25 |  |  | 
5 | O=S(=O)(c1ccc(O)cc1)c1ccc(O)cc1 | > 200 | > 50 | > 50 | > 50 | > 100 |  |  | 
6 | COC(=O)[C@H](CCCNC(=N)N)NC(=O)COc1ccc(S(=O)(=O)c2ccc(OC/C=C(/C)CCC=C(C)C)cc2)cc1 | > 200 | 50 | 50 | > 50 | > 50 |  |  | 
7 | CC(C)=CCOc1ccc(S(=O)(=O)c2ccc(OCCCNC(=N)N)cc2)cc1 | > 200 | 3.12 | 3.12 | 6.25 | 50 |  |  | 
8 | CC[C@H](C)[C@H](NC(=O)CN)C(=O)NCC(=O)N[C@@H](C)C(=O)N[C@H](C(=O)N[C@@H](CC(C)C)C(=O)N[C@@H](CCCCN)C(=O)N[C@H](C(=O)N[C@@H](CC(C)C)C(=O)N[C@H](C(=O)N[C@H](C(=O)NCC(=O)N[C@@H](CC(C)C)C(=O)N1CCC[C@H]1C(=O)N[C@@H](C)C(=O)N[C@@H](CC(C)C)C(=O)N[C@H](C(=O)N[C@@H](CO)C(=O)N[C@@H](Cc1c[nH]c2ccccc12)C(=O)N[C@H](C(=O)N[C@@H](CCCCN)C(=O)N[C@@H](CCCNC(=N)N)C(=O)N[C@@H](CCCCN)C(=O)N[C@@H](CCCNC(=N)N)C(=O)N[C@@H](CCC(N)=O)C(=O)N[C@@H](CCC(N)=O)C(N)=O)[C@@H](C)CC)[C@@H](C)CC)[C@@H](C)O)[C@@H](C)O)C(C)C)C(C)C [MELITTIN] |  |  |  |  |  | 3.12 | 6.25 | 3.12
9 | COC(=O)[C@H](CCCNC(=N)N)NC(=O)COc1ccc(S(=O)(=O)c2ccc(OCC=C(C)C)cc2)cc1 | 200 | 12.5 | 12.5 | 25 | > 50 |  |  | 
10 | COC(=O)[C@H](CCCNC(=N)N)NC(=O)[C@H](CCCNC(=N)N)NC(=O)[C@H](CCCNC(=N)N)NC(=O)COc1ccc(S(=O)(=O)c2ccc(OC(C)C)cc2)cc1 | > 200 | > 50 | > 50 | > 50 | > 50 |  |  | 
11 | CCOC(=O)COc1ccc(S(=O)(=O)c2ccc(OC/C=C(/C)CCC=C(C)C)cc2)cc1 | > 200 | > 50 | > 50 | > 50 | > 50 |  |  | 
12 | COC(=O)[C@H](CCCNC(=N)N)NC(=O)[C@H](CCCNC(=N)N)NC(=O)[C@H](CCCNC(=N)N)NC(=O)COc1ccc(S(=O)(=O)c2ccc(OCC=C(C)C)cc2)cc1 | > 200 | 6.25 | 6.25 | 12.5 | > 50 |  |  | 
13 | CC(C)=CCOc1ccc(S(=O)(=O)c2ccc(OCCCCN)cc2)cc1 | > 200 | 6.25 | 6.25 | 25 | > 50 |  |  | 
14 | CCOC(=O)COc1ccc(S(=O)(=O)c2ccc(OCC=C(C)C)cc2)cc1 | > 200 | > 50 | > 50 | > 50 | > 50 |  |  | 
